ChEMBL document CHEMBL4368862, “Design, synthesis, and anticancer activity evaluation of irreversible allosteric inhibitors of the ubiquitin-conjugating enzyme Ube2g2” (Medchemcomm, 2018)
Active and inactive are the calls of the source. The calls are words filed in the database; no cut-off is given here.

Assays:
[1] = molecular target: T1, Ubiquitin-conjugating enzyme E2 G2 (Homo sapiens) (UniProt P60604); test: Binding affinity to recombinant TEV cleavage site-fused-His6-tagged Ube2g2 (unknown origin) expressed in Escherichia coli Rosetta2 (DE3) assessed as compound-protein complex formation at 5 uL measured after overnight incubation at pH 7.4 by LC/MS analysis
T1 sequence (whole entry): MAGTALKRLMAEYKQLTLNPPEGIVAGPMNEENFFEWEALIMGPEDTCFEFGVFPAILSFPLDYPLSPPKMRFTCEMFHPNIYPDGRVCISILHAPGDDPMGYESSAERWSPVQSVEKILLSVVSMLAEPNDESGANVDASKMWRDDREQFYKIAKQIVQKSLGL

[2] = molecular target: T1, Ubiquitin-conjugating enzyme E2 G2 (Homo sapiens); test: (§1) Binding affinity to recombinant TEV cleavage site-fused-His6-tagged Ube2g2 (unknown origin) expressed in Escherichia coli Rosetta2 (DE3) assessed as molecular weight of compound-protein conjugate at 5 uL measured after overnight incubation at pH 8.5 by LC/MS analysis (reference value: 18491 Da)
[3] = molecular target: T1, Ubiquitin-conjugating enzyme E2 G2 (Homo sapiens); test: as §1, with “assessed as modification of Cys89 residue by measuring molecular weight” for “assessed as molecular weight”
[4] = molecular target: T1, Ubiquitin-conjugating enzyme E2 G2 (Homo sapiens); test: as §1, with “assessed as modification of Cys75 residue by measuring molecular weight” for “assessed as molecular weight”
[5] = molecular target: T1, Ubiquitin-conjugating enzyme E2 G2 (Homo sapiens); test: as §1, with “assessed as modification of Cys48 residue by measuring molecular weight” for “assessed as molecular weight”

Compound | Activity [1] | Activity [2] | Activity [3] [Da] | Activity [4] [Da] | Activity [5] [Da]
C=CC(=O)N[C@H](Cc1ccc(-c2cc(Cl)cc(Cl)c2)cc1)[C@@H](O)[C@H](O)C(=O)OCC | inactive | 18900 Da | – | – | –
C=CC(=O)N[C@@H](/C=C/C(=O)OCC)Cc1ccc(-c2cc(Cl)cc(Cl)c2)cc1 | inactive | 18900 Da | – | – | –
C=CC(=O)N[C@H](Cc1ccc(-c2cc(Cl)cc(Cl)c2)cc1)[C@@H](O)[C@H](O)C(=O)O | inactive | 18900 to 19300 Da | – | – | –
C=CCC(=O)N[C@@H](/C=C/C(=O)O)Cc1ccc(-c2cc(Cl)cc(Cl)c2)cc1 | inactive | inactive | – | – | –
C=CC(=O)N[C@H](CO)Cc1ccc(-c2cc(Cl)cc(Cl)c2)cc1 | inactive | – | 19500 | 19200 | 18800
C=CC(=O)N[C@@H](/C=C/C(=O)O)Cc1ccc(-c2cc(Cl)cc(Cl)c2)cc1 | inactive | 18900 Da | – | – | –
C=CC(=O)N[C@@H](Cc1ccc(-c2cc(Cl)cc(Cl)c2)cc1)[C@H](O)[C@@H](O)C(=O)OCC | inactive | 18900 Da | – | – | –
C=CCC(=O)N[C@H](/C=C/C(=O)OCC)Cc1ccc(-c2cc(Cl)cc(Cl)c2)cc1 | inactive | inactive | – | – | –
C=CC(=O)N[C@@H](Cc1ccc(-c2cc(Cl)cc(Cl)c2)cc1)[C@H](O)[C@@H](O)C(=O)O | inactive | inactive | – | – | –
CC(C)(C)OC(=O)N[C@H](C=O)Cc1ccc(-c2cc(Cl)cc(Cl)c2)cc1 | inactive | 18900 to 19300 Da | – | – | –
C=CCC(=O)N[C@@H](CO)Cc1ccc(-c2cc(Cl)cc(Cl)c2)cc1 | inactive | inactive | – | – | –
C=CCC(=O)N[C@@H](Cc1ccc(-c2cc(Cl)cc(Cl)c2)cc1)[C@H](O)[C@@H](O)C(=O)O | inactive | inactive | – | – | –
CCOC(=O)/C=C/[C@H](Cc1ccc(-c2cc(Cl)cc(Cl)c2)cc1)NC(=O)OC(C)(C)C | inactive | 18900 Da | – | – | –
C=CCC(=O)N[C@H](Cc1ccc(-c2cc(Cl)cc(Cl)c2)cc1)[C@@H](O)[C@H](O)C(=O)OCC | inactive | inactive | – | – | –
C=CCC(=O)N[C@H](Cc1ccc(-c2cc(Cl)cc(Cl)c2)cc1)[C@@H](O)[C@H](O)C(=O)O | inactive | inactive | – | – | –
C=CCC(=O)N[C@@H](/C=C/C(=O)OCC)Cc1ccc(-c2cc(Cl)cc(Cl)c2)cc1 | inactive | inactive | – | – | –
C=CC(=O)N[C@H](/C=C/C(=O)OCC)Cc1ccc(-c2cc(Cl)cc(Cl)c2)cc1 | inactive | 18900 Da | – | – | –
C=CCC(=O)N[C@@H](Cc1ccc(-c2cc(Cl)cc(Cl)c2)cc1)[C@H](O)[C@@H](O)C(=O)OCC | inactive | inactive | – | – | –
C=CC(=O)N[C@@H](CO)Cc1ccc(-c2cc(Cl)cc(Cl)c2)cc1 | inactive | 18800 to 19200 Da | – | – | –
C=CCC(=O)N[C@H](CO)Cc1ccc(-c2cc(Cl)cc(Cl)c2)cc1 | inactive | inactive | – | – | –
